Test results published in patent US8507010B2, “Compositions comprising quinazoline derivatives” (Shanghai Allist Pharmaceuticals, Inc., priority 2008, dated 2013).

Legend:
[1] = system: human ovarian cancer SKOV-3; experiment: Tumor-inhibitory effect on human ovarian cancer SKOV-3 grafted to a BALB/cA nude mouse; format: in vivo; details: for RTV: RTV=Vt/V0; for Volume of tumor (mm^3) V0: prior to the administration; for inhibitory effect on the tumor (in words): SKOV-3 grafted to BALB/cA nude mouse, high expression of erbB-2, p-toluenesulfonate
Protocol: A SKOV-3 tumor tissue in vigorous growth period was selected and incised into uniform pieces with the size of about 1.5 mm^3, which was grafted subcutaneously to the right armpit of a BALB/cA nude mouse (Shanghai Institute of Materia Medica, Chinese Academy of Sciences, grade SPF) with a trocar under sterile conditions. The diameters of the grafted tumors on the nude mouse were measured with a vernier caliper. The animals were grouped randomly when the tumors grew to a size of 80 to 100 mm^3. The tested animal groups were intragastrically administered through mouth as mentioned above once a day for 3 consecutive weeks. The positive control drug MMC (Mitomycin) was intravenously administered once on the first day with a dose of 5 mg/kg (0.9% sterile sodium chloride solution). The negative control group was administered with 0.5% CMC-Na (Carboxymethyl Cellulose-Sodium) with a dose of 0.2 mL/per mouse. The long axis (a) and the short axis (b) of the tumors were measured twice every week and the nude mice were weighed at the same time. According to the formula V=ab^2/2, the volume (mm^3) of the tumor could be calculated. Relative tumor volume (RTV) was calculated from the measurement result (according to the formula: RTV=Vt/V0, wherein V0 is the tumor volume measured upon the grouping time of administration, and Vt is the tumor volume measured each time). The relative tumor proliferation rate T/C(%) was chosen as the index of evaluation of anti-tumor activity, by the formula: T/C(%)=(TRTV/CRTV)×100 TRTV: RTV of the treated group; CRTV: RTV of the negative control group
(§1) Human epidermoid squamous carcinoma A431 grafted to BALB/cA nude mouse is an animal model having high expression of EGFR (erbB-1), and human ovarian cancer SKOV-3 grafted to BALB/cA nude mouse is an animal model having high expression of erbB-2.

in vivo = details: male, SD, rat
Protocol: Intragastric administration (ig): 16 healthy SD rats (Shanghai Super-B&K Laboratory Animal Corp. Ltd., grade SPF), male, weighted 200-250 g, randomly divided into four groups, were each administered intragastrically with a drug: the compound prepared according to Example 1 (21.68 mg/kg), crystalline form A, crystalline form B, or crystalline form C (30 mg/kg) of p-toluenesulfonate of said compound. The blood samples were collected at 0.5 h, 1.0 h, 1.5 h, 2.0 h, 3.0 h, 5.0 h, 7.0 h, 9.0 h, 12 h, and 24 h after administration, which were then isolated to prepare the plasma. The concentrations of the drugs in the plasma were determined by means of liquid phase chromatography/tandem mass spectrometer (Agilent 1200LC/6410B), and the concentration-time curve was obtained.

[2] = Study of stability at high temperature (60° C.); format: physicochemical; details: p-toluenesulfonate; for Purity (%): 60° C.; for thermal stability (in words): stored at 60° C. for 1 month
Study of light stability = format: physicochemical; details: p-toluenesulfonate; for light stability (in words): illumination 45001×±5001× for 1 month; for Purity (%): illumination 45001×±5001×
Text: The purity of the crystalline form A was detected at day 0, day 10 and day 30, thereby deducing light stability of crystalline form A. The light stability of each of crystalline forms B and C is obtained by the same approach.

[3] = Study of hygroscopicity (92.5% humidity); format: physicochemical; details: p-toluenesulfonate; for stability in highly humid surroundings (in words): 92.5% humidity for 1 month; for Purity (%): 92.5% humidity
[4] = Test on the drug absorption in SD rat, intravenous injection (iv); format: in vivo; details: male, 5 mg/kg, plasma
Protocol: Intravenous injection (iv): 4 healthy SD rats, male, weighted 200-250 g, were intravenously administered with p-toluenesulfonate of the compound of Example 1 (5 mg/kg). The blood samples were collected at 5 min, 15 min, 0.5 h, 1.5 h, 2.0 h, 3.0 h, 4.0 h, 5.0 h and 7.0 h after administration, which were then isolated to prepare the plasma. The concentrations of the drugs in the plasma were determined by means of liquid phase chromatography/tandem mass spectrometer and the concentration-time curve was obtained.

[5] = system: human epidermoid squamous cancer cell A431; experiment: Tumor-inhibitory effect on human epidermoid squamous cancer cell A431 grafted to a BALB/cA nude mouse; format: in vivo; details: for inhibitory effect on the tumor (in words): A431 grafted to BALB/cA nude mouse, high expression of EGFR (erbB-1), p-toluenesulfonate; for Tumor-inhibitory rate % / Weight of animals (g) (tumor-off) / Weight of tumor (g) x ± SD: 13 successive days, 23 days after grafting
Protocol: A well-developed solid tumor A431 was selected and incised into several uniform pieces with the size of 2-3 mm under sterile conditions, with one piece being grafted subcutaneously to the right armpit of each of the BALB/cA nude mice using a trocar. 7 days after the grafting, the mice were grouped randomly and were intragastrically administrated through mouth for 13 successive days. The long axis (a) and the short axis (b) of the tumors were measured with a vernier caliper every 4 days. According to the formula V=ab^2/2, the volume of the tumor (mm^3) could be calculated. The tested animals were neck-off killed 23 days after the grafting, and anatomized to obtain the tumors. The tumors were weighed, and the tumor inhibition rate was calculated.
as §1

[6] = 5 mg/kg iv once on the first day
[7] = listed as p-toluenesulfonate of N-{-4-[3-chloro-4-(3-fluoro-benzyloxy)phenylamino]quinazol
[8] = 50 mg/kg ig once a day for 3 weeks
[9] = 100 mg/kg ig once a day for 3 weeks
[10] = 200 mg/kg ig once a day for 3 weeks

CO[C@@]12[C@H](COC(N)=O)C3=C(C(=O)C(C)=C(N)C3=O)N1C[C@@H]1N[C@@H]12 [MMC, Mitomycin, reference compound]
RTV [1, 6]: 3.1 ± 0.5 | T/C (%) ([1]; 5 mg/kg iv once on the first day, T/C=(TRTV/CRTV)×100): 32.0% | Volume of tumor (mm^3) V21 ([1]; 5 mg/kg iv once on the first day, after 3 weeks): 258 ± 77 mm^3 | Volume of tumor (mm^3) V0 [1, 6]: 83 ± 13 mm^3

C=CC(=O)Nc1ccc2ncnc(Nc3ccc(OCc4cccc(F)c4)c(Cl)c3)c2c1.Cc1ccc(S(=O)(=O)O)cc1 [Crystalline form B, N-{4-[3-chloro-4-(3-fluoro-benzyloxy)phenylamino]quinazolin-6-yl}-acrylamide p-toluenesulfonate]
absolute bioavailability (in vivo): 8.76% | AUC(0-t) (in vivo; po, 30 mg/kg): 0.978 µg·h/mL | Cmax (in vivo; po, 30 mg/kg): 0.253 µg/mL | T1/2 (in vivo; po, 30 mg/kg): 1.23 h | Tmax (in vivo; po, 30 mg/kg): 1.25 h | Purity (%) ([2]; day 0): 99.26% | Purity (%) ([2]; day 10): 99.21% | Purity (%) ([2]; day 30): 99.11% | thermal stability (in words) [2]: excellent thermal stability | light stability (in words) (Study of light stability): excellent light stability | Purity (%) (Study of light stability; day 0): 99.26% | Purity (%) (Study of light stability; day 10): 99.26% | Purity (%) (Study of light stability; day 30): 99.24% | stability in highly humid surroundings (in words) [3]: very stable | Purity (%) ([3]; day 0): 99.26% | Purity (%) ([3]; day 10): 99.25% | Purity (%) ([3]; day 30): 99.24%

C=CC(=O)Nc1ccc2ncnc(Nc3ccc(OCc4cccc(F)c4)c(Cl)c3)c2c1.Cc1ccc(S(=O)(=O)O)cc1 [p-toluene sulfonate, N-{4-[3-chloro-4-(3-fluoro-benzyloxy)phenylamino]quinazolin-6-yl}-acrylamide p-toluenesulfonate]
AUC(0-t) [4]: 1.86 µg·h/mL | Cmax [4]: 1.75 µg/mL | Tmax [4]: 4.98 min | half-life [4]: 1.55 h | inhibitory effect on the tumor (in words) ([5]; listed as p-toluenesulfonate of N-{-4-[3-chloro-4-(3-fluoro-benzyloxy)phenylamino]-quinazo): significant inhibitory effect on the tumor | inhibitory effect on the tumor (in words) [5, 7]: remarkable inhibitory effect on tumor growth | inhibitory effect on the tumor (in words) [1, 7]: remarkable inhibitory effect on tumor growth

C=CC(=O)Nc1ccc2ncnc(Nc3ccc(OCc4cccc(F)c4)c(Cl)c3)c2c1.Cc1ccc(S(=O)(=O)O)cc1 [Crystalline form A, N-{4-[3-chloro-4-(3-fluoro-benzyloxy)phenylamino]quinazolin-6-yl}-acrylamide p-toluenesulfonate]
bioavailability (in vivo; absolute bioavailability): 8.75% | AUC(0-t) (in vivo; po, 30 mg/kg): 0.977 µg·h/mL | Cmax (in vivo; po, 30 mg/kg): 0.187 µg/mL | T1/2 (in vivo; po, 30 mg/kg): 1.49 h | Tmax (in vivo; po, 30 mg/kg): 2.83 h | Tumor-inhibitory rate % ([5]; 25 mg/kg ig): 29.99% | Weight of animals (g) (tumor-off) ([5]; 25 mg/kg ig): 21.58 ± 2.18 g | Weight of tumor (g) x ± SD ([5]; 25 mg/kg ig): 0.79 ± 0.20 g | Tumor-inhibitory rate % ([5]; 50 mg/kg ig): 38.67% | Weight of animals (g) (tumor-off) ([5]; 50 mg/kg ig): 22.87 ± 3.96 g | Weight of tumor (g) x ± SD ([5]; 50 mg/kg ig): 0.69 ± 0.17 g | Tumor-inhibitory rate % ([5]; 100 mg/kg ig): 43.63% | Weight of animals (g) (tumor-off) ([5]; 100 mg/kg ig): 22.13 ± 1.83 g | Weight of tumor (g) x ± SD ([5]; 100 mg/kg ig): 0.64 ± 0.23 g | T/C (%) [1, 8]: 53.0% | RTV [1, 8]: 5.1 ± 1.7 | Volume of tumor (mm^3) V21 ([1]; 50 mg/kg ig once a day, after administration for consecutive 3 weeks): 421 ± 89 mm^3 | Volume of tumor (mm^3) V0 ([1]; 50 mg/kg ig): 79 ± 28 mm^3 | T/C (%) [1, 9]: 45.0% | RTV [1, 9]: 4.3 ± 1.3 | Volume of tumor (mm^3) V21 ([1]; 100 mg/kg ig once a day, after administration for consecutive 3 weeks): 345 ± 88 mm^3 | Volume of tumor (mm^3) V0 ([1]; 100 mg/kg ig): 87 ± 41 mm^3 | T/C (%) [1, 10]: 36.9% | RTV [1, 10]: 3.5 ± 0.8 | Volume of tumor (mm^3) V21 ([1]; 200 mg/kg ig once a day, after administration for consecutive 3 weeks): 303 ± 72 mm^3 | Volume of tumor (mm^3) V0 ([1]; 200 mg/kg ig): 86 ± 13 mm^3 | inhibitory effect on the tumor (in words) [1]: significant inhibitory effect on the tumor | Purity (%) ([2]; day 0): 98.64% | Purity (%) ([2]; day 10): 98.64% | Purity (%) ([2]; day 30): 98.64% | thermal stability (in words) [2]: excellent thermal stability | light stability (in words) (Study of light stability): good light stability | Purity (%) (Study of light stability; day 0): 98.64% | Purity (%) (Study of light stability; day 10): 98.16% | Purity (%) (Study of light stability; day 30): 97.24% | stability in highly humid surroundings (in words) [3]: very stable | Purity (%) ([3]; day 0): 98.64% | Purity (%) ([3]; day 10): 98.62% | Purity (%) ([3]; day 30): 98.62%

C=CC(=O)Nc1ccc2ncnc(Nc3ccc(OCc4cccc(F)c4)c(Cl)c3)c2c1.Cc1ccc(S(=O)(=O)O)cc1 [Crystalline form C, N-{4-[3-chloro-4-(3-fluoro-benzyloxy)phenylamino]quinazolin-6-yl}-acrylamide p-toluenesulfonate]
absolute bioavailability (in vivo): 5.17% | Tmax (in vivo; po, 30 mg/kg): 2.25 h | AUC(0-t) (in vivo; po, 30 mg/kg, AUC0-t): 0.577 µg·h/mL | Cmax (in vivo; po, 30 mg/kg, Cmax): 0.161 µg/mL | half-life (in vivo; po, 30 mg/kg, T1/2): 1.27 h | Purity (%) ([2]; day 0): 99.03% | Purity (%) ([2]; day 10): 97.08% | Purity (%) ([2]; day 30): 97.55% | thermal stability (in words) [2]: good thermal stability | light stability (in words) (Study of light stability): good light stability | Purity (%) (Study of light stability; day 0): 99.03% | Purity (%) (Study of light stability; day 10): 98.54% | Purity (%) (Study of light stability; day 30): 98.42% | stability in highly humid surroundings (in words) [3]: quite stable | Purity (%) ([3]; day 0): 99.03% | Purity (%) ([3]; day 10): 98.27% | Purity (%) ([3]; day 30): 98.08%
